From US10227342B2 (ARIAD PHARMACEUTICALS, INC., priority 2014, dated 2019)

Experiments:
Format in all cases: cell-based
[1] = molecular target: human EGFR exon 20 insertion ASV (V769_D770insASV) (Homo sapiens (Human), UniProt P00533, INS769ASV); test: Ba/F3-EGFR-Exon20-ASV cell anti-proliferative assay (CellTiter 96 MTS, 72 h); details: Ba/F3-EGFR-Exon20-ASV cells;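 further: Ba/F3 cells bearing the EGFR exon 20 ASV insertion, a line able to proliferate without IL-3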
[2] = molecular target: human EGFR exon 20 insertion NPG (H773_V774insNPG) (Homo sapiens, UniProt P00533, INS773NPG, cells depend on it); test: Ba/F3-EGFR-Exon20-NPG cell anti-proliferative assay (CellTiter 96 MTS, 72 h); details: read-out: EGFR exon 20 NPG insertion IC50
human EGFR exon 20 insertion NPG (H773_V774insNPG), sequence (P00533 with tags, fused parts or gaps INS773NPG limits assumed): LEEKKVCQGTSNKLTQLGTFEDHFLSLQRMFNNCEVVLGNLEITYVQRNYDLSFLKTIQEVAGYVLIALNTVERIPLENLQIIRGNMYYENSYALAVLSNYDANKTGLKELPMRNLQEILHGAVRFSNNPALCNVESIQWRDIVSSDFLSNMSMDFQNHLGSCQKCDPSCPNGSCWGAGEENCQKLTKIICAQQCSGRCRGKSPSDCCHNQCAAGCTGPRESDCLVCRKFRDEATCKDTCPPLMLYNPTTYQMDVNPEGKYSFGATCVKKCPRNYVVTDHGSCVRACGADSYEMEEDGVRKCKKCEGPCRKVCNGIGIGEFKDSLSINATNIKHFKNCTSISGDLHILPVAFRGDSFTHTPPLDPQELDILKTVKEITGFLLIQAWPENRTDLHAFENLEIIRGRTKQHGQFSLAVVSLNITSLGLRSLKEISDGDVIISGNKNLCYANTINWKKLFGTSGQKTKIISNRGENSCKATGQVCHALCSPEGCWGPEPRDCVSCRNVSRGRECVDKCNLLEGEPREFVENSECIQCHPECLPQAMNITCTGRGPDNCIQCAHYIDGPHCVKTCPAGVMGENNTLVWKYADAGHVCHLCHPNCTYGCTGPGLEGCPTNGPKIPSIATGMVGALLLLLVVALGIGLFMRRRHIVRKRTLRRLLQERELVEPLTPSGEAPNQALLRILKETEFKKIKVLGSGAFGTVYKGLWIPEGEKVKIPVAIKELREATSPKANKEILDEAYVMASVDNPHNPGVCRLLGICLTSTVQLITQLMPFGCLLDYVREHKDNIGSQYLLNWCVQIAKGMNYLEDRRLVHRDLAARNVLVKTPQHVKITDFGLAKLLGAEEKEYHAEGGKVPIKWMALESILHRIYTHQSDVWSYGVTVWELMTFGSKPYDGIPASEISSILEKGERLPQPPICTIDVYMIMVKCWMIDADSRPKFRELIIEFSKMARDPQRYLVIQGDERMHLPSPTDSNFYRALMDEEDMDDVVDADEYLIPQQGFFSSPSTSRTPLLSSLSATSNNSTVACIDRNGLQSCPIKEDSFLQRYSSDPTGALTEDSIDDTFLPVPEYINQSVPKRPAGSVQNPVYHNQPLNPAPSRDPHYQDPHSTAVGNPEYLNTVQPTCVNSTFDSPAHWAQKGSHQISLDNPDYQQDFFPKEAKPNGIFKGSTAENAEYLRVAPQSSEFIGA

[3] = molecular target: human EGFR E746-A750 deletion and T790M Mutation (DT) (Homo sapiens (Human), UniProt P00533, DEL746-750/T790M); test: Ba/F3-EGFR-Del/T790M cell anti-proliferative assay (CellTiter 96 MTS, 72 h); details: Ba/F3-EGFR-Del/T790M cells; for IC50: read-out: EGFR exon 19 deletion and T790M mutation IC50
human EGFR E746-A750 deletion and T790M Mutation (DT), sequence (P00533 other isoform, or with tags, fused parts or gaps T790M/del E746-A750): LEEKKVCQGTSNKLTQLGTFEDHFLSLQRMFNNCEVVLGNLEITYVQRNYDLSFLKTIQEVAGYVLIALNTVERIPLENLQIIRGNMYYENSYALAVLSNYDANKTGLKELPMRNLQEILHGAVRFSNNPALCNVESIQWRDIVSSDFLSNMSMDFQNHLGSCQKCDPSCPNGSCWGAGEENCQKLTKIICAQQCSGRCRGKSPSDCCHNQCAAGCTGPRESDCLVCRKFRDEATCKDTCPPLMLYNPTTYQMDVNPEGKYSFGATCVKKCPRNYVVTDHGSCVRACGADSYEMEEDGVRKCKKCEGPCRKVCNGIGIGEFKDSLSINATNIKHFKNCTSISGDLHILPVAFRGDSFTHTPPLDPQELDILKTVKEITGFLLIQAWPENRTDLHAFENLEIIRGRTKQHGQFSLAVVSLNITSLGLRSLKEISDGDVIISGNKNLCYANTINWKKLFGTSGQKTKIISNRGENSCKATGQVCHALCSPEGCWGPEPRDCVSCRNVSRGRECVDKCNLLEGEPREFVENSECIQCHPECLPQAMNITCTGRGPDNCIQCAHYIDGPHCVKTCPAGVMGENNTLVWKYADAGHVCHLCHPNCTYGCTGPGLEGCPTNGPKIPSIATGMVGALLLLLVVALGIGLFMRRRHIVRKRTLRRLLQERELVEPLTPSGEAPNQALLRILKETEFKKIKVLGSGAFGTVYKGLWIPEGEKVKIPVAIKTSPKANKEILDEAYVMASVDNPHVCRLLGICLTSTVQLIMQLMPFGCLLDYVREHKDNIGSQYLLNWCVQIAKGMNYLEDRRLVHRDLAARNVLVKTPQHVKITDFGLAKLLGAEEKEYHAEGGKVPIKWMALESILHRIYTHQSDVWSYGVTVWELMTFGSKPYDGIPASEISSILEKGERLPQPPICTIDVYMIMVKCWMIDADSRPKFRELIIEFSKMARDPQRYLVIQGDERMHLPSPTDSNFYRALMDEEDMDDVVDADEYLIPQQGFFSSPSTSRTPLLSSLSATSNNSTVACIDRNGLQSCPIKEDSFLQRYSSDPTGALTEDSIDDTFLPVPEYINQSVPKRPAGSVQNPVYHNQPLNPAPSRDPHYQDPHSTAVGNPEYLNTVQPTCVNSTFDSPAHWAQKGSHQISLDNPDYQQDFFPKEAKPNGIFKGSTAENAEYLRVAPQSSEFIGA

[4] = molecular target: Her2 exon 20 YVMA insertion (A775_G776ins YVMA) (Homo sapiens (Human), UniProt P04626, INS775YVMA); test: Ba/F3-Her2 Exon20 YVMA cell anti-proliferative assay (CellTiter 96 MTS, 72 h); details: Ba/F3-Her2 Exon20 YVMA cells
Her2 exon 20 YVMA insertion (A775_G776ins YVMA), sequence (P04626 other isoform, or with tags, fused parts or gaps ins YVMA behind 775): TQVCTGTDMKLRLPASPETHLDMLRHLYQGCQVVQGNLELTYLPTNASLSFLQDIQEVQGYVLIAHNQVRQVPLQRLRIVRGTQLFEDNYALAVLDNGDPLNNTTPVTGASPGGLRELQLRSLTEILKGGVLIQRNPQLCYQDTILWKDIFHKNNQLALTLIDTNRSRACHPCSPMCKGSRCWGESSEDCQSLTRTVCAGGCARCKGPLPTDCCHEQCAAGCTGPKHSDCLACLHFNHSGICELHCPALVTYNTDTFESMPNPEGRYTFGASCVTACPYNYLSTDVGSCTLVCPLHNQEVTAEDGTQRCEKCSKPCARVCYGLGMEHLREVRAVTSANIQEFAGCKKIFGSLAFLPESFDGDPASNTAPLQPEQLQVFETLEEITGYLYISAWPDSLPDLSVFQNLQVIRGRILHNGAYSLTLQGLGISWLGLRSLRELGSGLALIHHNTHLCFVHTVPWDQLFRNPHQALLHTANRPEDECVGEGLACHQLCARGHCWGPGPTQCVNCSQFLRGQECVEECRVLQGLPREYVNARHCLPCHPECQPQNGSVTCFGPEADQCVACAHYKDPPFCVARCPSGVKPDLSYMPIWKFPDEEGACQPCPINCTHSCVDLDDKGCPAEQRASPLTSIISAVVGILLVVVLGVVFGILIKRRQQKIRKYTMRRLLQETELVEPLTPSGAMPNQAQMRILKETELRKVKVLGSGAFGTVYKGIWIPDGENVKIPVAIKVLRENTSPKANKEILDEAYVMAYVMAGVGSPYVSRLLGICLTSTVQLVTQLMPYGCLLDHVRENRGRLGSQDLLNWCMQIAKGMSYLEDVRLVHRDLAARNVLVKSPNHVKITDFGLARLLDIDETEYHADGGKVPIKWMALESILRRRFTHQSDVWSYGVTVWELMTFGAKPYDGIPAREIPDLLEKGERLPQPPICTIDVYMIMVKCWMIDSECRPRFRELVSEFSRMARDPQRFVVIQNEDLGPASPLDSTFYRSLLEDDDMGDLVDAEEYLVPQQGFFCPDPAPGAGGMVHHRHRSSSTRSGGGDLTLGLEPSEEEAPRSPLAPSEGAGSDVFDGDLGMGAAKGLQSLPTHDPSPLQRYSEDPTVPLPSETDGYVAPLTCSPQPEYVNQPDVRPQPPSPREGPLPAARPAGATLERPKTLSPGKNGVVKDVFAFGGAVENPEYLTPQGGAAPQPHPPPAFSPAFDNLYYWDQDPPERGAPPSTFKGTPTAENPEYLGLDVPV
From the text: Ba/F3 cells expressing Her2 Exon20 YVMA insertions (named Ba/F3-Her2 Exon20 YVMA) can proliferate in the absence of IL-3.

human EGFR exon 20 insertion ASV (V769_D770insASV), sequence (P00533 other isoform, or with tags, fused parts or gaps ins ASV behind 769): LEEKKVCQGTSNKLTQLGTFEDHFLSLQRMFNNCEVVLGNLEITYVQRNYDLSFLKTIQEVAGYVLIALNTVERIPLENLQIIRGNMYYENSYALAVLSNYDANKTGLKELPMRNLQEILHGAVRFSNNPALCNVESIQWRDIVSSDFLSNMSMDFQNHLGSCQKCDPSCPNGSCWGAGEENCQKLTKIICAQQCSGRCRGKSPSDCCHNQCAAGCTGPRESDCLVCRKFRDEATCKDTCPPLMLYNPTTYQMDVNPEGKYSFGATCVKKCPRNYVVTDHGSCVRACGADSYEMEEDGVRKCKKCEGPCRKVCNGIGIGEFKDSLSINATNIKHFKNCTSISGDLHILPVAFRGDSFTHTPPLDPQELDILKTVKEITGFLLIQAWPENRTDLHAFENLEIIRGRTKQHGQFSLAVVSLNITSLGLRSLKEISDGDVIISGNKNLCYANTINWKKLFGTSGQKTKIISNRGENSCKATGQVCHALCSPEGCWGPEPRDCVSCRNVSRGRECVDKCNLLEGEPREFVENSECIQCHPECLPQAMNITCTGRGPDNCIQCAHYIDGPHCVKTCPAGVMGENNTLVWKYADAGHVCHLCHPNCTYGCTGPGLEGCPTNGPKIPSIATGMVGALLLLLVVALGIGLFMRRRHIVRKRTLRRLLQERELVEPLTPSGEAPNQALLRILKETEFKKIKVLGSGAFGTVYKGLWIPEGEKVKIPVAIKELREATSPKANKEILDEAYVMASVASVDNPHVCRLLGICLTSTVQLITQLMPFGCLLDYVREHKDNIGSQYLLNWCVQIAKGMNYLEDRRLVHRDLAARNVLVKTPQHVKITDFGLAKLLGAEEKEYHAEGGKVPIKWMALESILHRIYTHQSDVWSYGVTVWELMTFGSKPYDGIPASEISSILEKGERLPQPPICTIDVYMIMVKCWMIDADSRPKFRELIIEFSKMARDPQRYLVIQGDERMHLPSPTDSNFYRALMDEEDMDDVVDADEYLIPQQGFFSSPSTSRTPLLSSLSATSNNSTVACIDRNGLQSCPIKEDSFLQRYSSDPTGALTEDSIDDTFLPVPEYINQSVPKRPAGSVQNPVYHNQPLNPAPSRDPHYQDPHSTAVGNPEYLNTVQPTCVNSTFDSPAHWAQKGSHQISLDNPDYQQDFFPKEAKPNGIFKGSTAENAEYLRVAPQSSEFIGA

Row | SMILES | IC50 [1] | IC50 [2] | IC50 [3] | IC50 [4] | EGFR exon 19 deletion and T790M mutation IC50 [3]
1 | C=CC(=O)Nc1cc(Nc2ncc(NC(=O)CC)c(-c3nn(C)c4ccccc34)n2)c(OC)cc1N(C)CCN(C)C [Example 60, N-(2-((2-(dimethylamino)ethyl)(methyl)amino)-4-methoxy-5-((4-(1-methyl-1H-indazol-3-yl)-5-propionamidopyrimidin-2-yl)amino)phenyl)acrylamide] | < 100 nM | < 100 nM | < 100 nM | > 1000 nM | –
2 | C=CC(=O)Nc1cc(Nc2ncc(C(=O)OC(C)C)c(-n3ccc4ccccc43)n2)c(OC)cc1N(C)C[C@H]1CCCN1C [Example 61, isopropyl (R)-2-((5-acrylamido-2-methoxy-4-(methyl((1-methylpyrrolidin-2-yl)methyl)amino)phenyl)amino)-4-(1H-indol-1-yl)pyrimidine-5-carboxylate] | < 100 nM | < 100 nM | < 100 nM | 100 to 500 nM | –
3 | C=CC(=O)Nc1cc(Nc2ncc(C(=O)OC(C)C)c(-c3coc4ccccc34)n2)c(OC)cc1N(C)C[C@H]1CCCN1C [Example 62, isopropyl (R)-2-((5-acrylamido-2-methoxy-4-(methyl((1-methylpyrrolidin-2-yl)methyl)amino)phenyl)amino)-4-(benzofuran-3-yl)pyrimidine-5-carboxylate] | < 100 nM | < 100 nM | < 100 nM | 100 to 500 nM | –
4 | C=CC(=O)Nc1cc(Nc2ncc(C(=O)OC)c(-n3ccc4ccccc43)n2)c(OC)cc1N(C)C[C@H]1CCCN1C [Example 63, methyl (R)-2-((5-acrylamido-2-methoxy-4-(methyl((1-methylpyrrolidin-2-yl)methyl)amino)phenyl)amino)-4-(1H-indol-1-yl)pyrimidine-5-carboxylate] | < 100 nM | < 100 nM | < 100 nM | 500 to 1000 nM | –
5 | C=CC(=O)Nc1cc(Nc2ncc(C(=O)OC(C)C)c(-c3c[nH]c4ccccc34)n2)c(OC)cc1N(C)C[C@H]1CCCN1C [Example 64, isopropyl (R)-2-((5-acrylamido-2-methoxy-4-(methyl((1-methylpyrrolidin-2-yl)methyl)amino)phenyl)amino)-4-(1H-indol-3-yl)pyrimidine-5-carboxylate] | < 100 nM | < 100 nM | < 100 nM | < 100 nM | –
6 | C=CC(=O)Nc1cc(Nc2ncc(C(=O)OCC)c(-c3cn(C)c4ccccc34)n2)c(OC)cc1N(C)C[C@H]1CCCN1C [Example 65, ethyl (R)-2-((5-acrylamido-2-methoxy-4-(methyl((1-methylpyrrolidin-2-yl)methyl)amino)phenyl)amino)-4-(1-methyl-1H-indol-3-yl)pyrimidine-5-carboxylate] | < 100 nM | < 100 nM | < 100 nM | < 100 nM | –
7 | C=CC(=O)Nc1cc(Nc2ncc(C(=O)OC)c(-c3cn(C)c4ccccc34)n2)c(OC)cc1C#CCN(C)C [Example 68, methyl 2-((5-acrylamido-4-(3-(dimethylamino)prop-1-yn-1-yl)-2-methoxyphenyl)amino)-4-(1-methyl-1H-indol-3-yl)pyrimidine-5-carboxylate] | 100 to 500 nM | < 100 nM | < 100 nM | 500 to 1000 nM | –
8 | C=CC(=O)Nc1cc(Nc2ncc(C(=O)OC)c(-c3cn(C)c4ccccc34)n2)c(OC)cc1CCCN(C)C [Example 69, methyl 2-((5-acrylamido-4-(3-(dimethylamino)propyl)-2-methoxyphenyl)amino)-4-(1-methyl-1H-indol-3-yl)pyrimidine-5-carboxylate] | 100 to 500 nM | < 100 nM | < 100 nM | 500 to 1000 nM | –
9 | C=CC(=O)Nc1cc(Nc2ncc(C(=O)OC)c(-c3cn(N(C)C)c4ccccc34)n2)c(OC)cc1N(C)CCN(C)C [Example 76, methyl 2-((5-acrylamido-4-((2-(dimethylamino)ethyl)(methyl)amino)-2-methoxyphenyl)amino)-4-(1-(dimethylamino)-1H-indol-3-yl)pyrimidine-5-carboxylate] | < 100 nM | < 100 nM | < 100 nM | < 100 nM | –
10 | C=CC(=O)Nc1cc(Nc2ncc(C(=O)OC(C)C)c(-c3cn(C(C)=O)c4ccccc34)n2)c(OC)cc1N(C)CCN(C)C [Example 78, isopropyl 4-(1-acetyl-1H-indol-3-yl)-2-((5-acrylamido-4-((2-(dimethylamino)ethyl)(methyl)amino)-2-methoxyphenyl)amino)pyrimidine-5-carboxylate] | < 100 nM | < 100 nM | < 100 nM | < 100 nM | –
11 | C=CC(=O)Nc1cc(Nc2ncc(C(=O)OC(C)C)c(-c3cn(C4CC4)c4ccccc34)n2)c(OC)cc1N(C)CCN(C)C [Example 79, isopropyl 2-((5-acrylamido-4-((2-(dimethylamino)ethyl)(methyl)amino)-2-methoxyphenyl)amino)-4-(1-cyclopropyl-1H-indol-3-yl)pyrimidine-5-carboxylate] | < 100 nM | < 100 nM | < 100 nM | 100 to 500 nM | –
12 | C=CC(=O)Nc1cc(Nc2nccc(-c3cn(C)c4cccc(C(=O)OC)c34)n2)c(OC)cc1N(C)CCN(C)C [Example 80, methyl 3-(2-((5-acrylamido-4-((2-(dimethylamino)ethyl)(methyl)amino)-2-methoxyphenyl)amino)pyrimidin-4-yl)-1-methyl-1H-indole-4-carboxylate] | > 1000 nM | > 1000 nM | – | > 1000 nM | D (Group D compounds have an IC50 value for the indicated mutant greater than about 1 μM)
13 | C=CC(=O)Nc1cc(Nc2nccc(-c3cn(C)c4ccc(C(=O)OC)cc34)n2)c(OC)cc1N(C)CCN(C)C [Example 81, methyl 3-(2-((5-acrylamido-4-((2-(dimethylamino)ethyl)(methyl)amino)-2-methoxyphenyl)amino)pyrimidin-4-yl)-1-methyl-1H-indole-5-carboxylate] | 100 to 500 nM | < 100 nM | < 100 nM | 500 to 1000 nM | –
14 | C=CC(=O)Nc1cc(Nc2nccc(-c3cn(C)c4cc(C(=O)OC)ccc34)n2)c(OC)cc1N(C)CCN(C)C [Example 82, methyl 3-(2-((5-acrylamido-4-((2-(dimethylamino)ethyl)(methyl)amino)-2-methoxyphenyl)amino)pyrimidin-4-yl)-1-methyl-1H-indole-6-carboxylate] | 100 to 500 nM | < 100 nM | < 100 nM | 100 to 500 nM | –
15 | C=CC(=O)Nc1cc(Nc2ncc(C(=O)OC(C)C)c(-c3cnc4ccccn34)n2)c(OC)cc1N(C)CCN(C)C [Example 94, isopropyl 2-((5-acrylamido-4-((2-(dimethylamino)ethyl)(methyl)amino)-2-methoxyphenyl)amino)-4-(imidazo[1,2-a]pyridin-3-yl)pyrimidine-5-carboxylate] | < 100 nM | < 100 nM | < 100 nM | < 100 nM | –
16 | C=CC(=O)Nc1cc(Nc2ncc(C(=O)OC(C)C)c(-n3cc(C)c4ccccc43)n2)c(OC)cc1N(C)CCN(C)C [Example 97, isopropyl 2-((5-acrylamido-4-((2-(dimethylamino)ethyl)(methyl)amino)-2-methoxyphenyl)amino)-4-(3-methyl-1H-indol-1-yl)pyrimidine-5-carboxylate] | 100 to 500 nM | < 100 nM | < 100 nM | 100 to 500 nM | –
